Measurements taken from PubChem BioAssay (NCI).
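Cultured in 96-well plates, cells were exposed to test compound for 48 hours across five concentrations. GI50 = concentration required for 50% inhibition of growth. TGI is the concentration that stops growth completely.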

What was measured:
Test in all cases: NCI tumour cell line growth inhibition, 48 h
CAKI-1 renal = test system: CAKI-1 renal
SR leukemia = test system: SR leukemia
RXF 393 renal = test system: RXF 393 renal
HCT-15 colon = test system: HCT-15 colon
IGROV1 ovarian = test system: IGROV1 ovarian
NCI-H460 lung = test system: NCI-H460 lung
HL-60(TB) leukemia = test system: HL-60(TB) leukemia
EKVX NSCLC = test system: EKVX NSCLC
OVCAR-5 ovarian = test system: OVCAR-5 ovarian
MDA-MB-231 breast = test system: MDA-MB-231 breast
K-562 leukemia = test system: K-562 leukemia
SNB-75 CNS = test system: SNB-75 CNS
BT-549 breast = test system: BT-549 breast
SK-OV-3 ovarian = test system: SK-OV-3 ovarian
HCT-116 colon = test system: HCT-116 colon
OVCAR-4 ovarian = test system: OVCAR-4 ovarian
HCC-2998 colon = test system: HCC-2998 colon
SNB-19 CNS = test system: SNB-19 CNS
HT29 colon = test system: HT29 colon
SW-620 colon = test system: SW-620 colon
UACC-257 melanoma = test system: UACC-257 melanoma
DU-145 prostate = test system: DU-145 prostate
T-47D breast = test system: T-47D breast
UACC-62 melanoma = test system: UACC-62 melanoma
KM12 colon = test system: KM12 colon
HOP-92 NSCLC = test system: HOP-92 NSCLC
NCI-H226 lung = test system: NCI-H226 lung
LOX IMVI melanoma = test system: LOX IMVI melanoma
SK-MEL-5 melanoma = test system: SK-MEL-5 melanoma
SF-539 CNS = test system: SF-539 CNS
OVCAR-8 ovarian = test system: OVCAR-8 ovarian
NCI-H522 lung = test system: NCI-H522 lung
MCF7 breast = test system: MCF7 breast
786-0 renal = test system: 786-0 renal
A549 NSCLC = test system: A549 NSCLC
SK-MEL-28 melanoma = test system: SK-MEL-28 melanoma
CCRF-CEM leukemia = test system: CCRF-CEM leukemia
SF-268 CNS = test system: SF-268 CNS
RPMI-8226 leukemia = test system: RPMI-8226 leukemia
M14 melanoma = test system: M14 melanoma
HOP-62 NSCLC = test system: HOP-62 NSCLC
COLO 205 colon = test system: COLO 205 colon
SK-MEL-2 melanoma = test system: SK-MEL-2 melanoma
SF-295 CNS = test system: SF-295 CNS
PC-3 prostate = test system: PC-3 prostate
OVCAR-3 ovarian = test system: OVCAR-3 ovarian
HS 578T breast = test system: HS 578T breast
NCI-H23 lung = test system: NCI-H23 lung
ACHN renal = test system: ACHN renal
U251 CNS = test system: U251 CNS
UO-31 renal = test system: UO-31 renal
A498 renal = test system: A498 renal
SN12C renal = test system: SN12C renal
MDA-MB-435 = test system: MDA-MB-435
MDA-MB-468 breast = test system: MDA-MB-468 breast
MALME-3M melanoma = test system: MALME-3M melanoma
TK-10 renal = test system: TK-10 renal
MOLT-4 leukemia = test system: MOLT-4 leukemia

Compound: O=C(Nc1ccc(F)c(Cl)c1)c1cc(-c2ccc(F)cc2F)ccc1O
- GI50 (CAKI-1 renal): 1.5 µM
- TGI (CAKI-1 renal): 4.97 µM
- GI50 (SR leukemia): 2.39 µM
- TGI (SR leukemia): 9.53 µM
- GI50 (RXF 393 renal): 1.65 µM
- TGI (RXF 393 renal): 5.45 µM
- GI50 (HCT-15 colon): 2.31 µM
- TGI (HCT-15 colon): 10.2 µM
- GI50 (IGROV1 ovarian): 3.25 µM
- TGI (IGROV1 ovarian): 27 µM
- GI50 (NCI-H460 lung): 2.19 µM
- TGI (NCI-H460 lung): 8.82 µM
- GI50 (HL-60(TB) leukemia): 1.78 µM
- TGI (HL-60(TB) leukemia): 4.44 µM
- GI50 (EKVX NSCLC): 2.71 µM
- TGI (EKVX NSCLC): 12.7 µM
- GI50 (OVCAR-5 ovarian): 3.39 µM
- TGI (OVCAR-5 ovarian): 38.9 µM
- GI50 (MDA-MB-231 breast): 1.96 µM
- TGI (MDA-MB-231 breast): 4.62 µM
- GI50 (K-562 leukemia): 2.01 µM
- TGI (K-562 leukemia): 11.9 µM
- GI50 (SNB-75 CNS): 1.05 µM
- TGI (SNB-75 CNS): 4.68 µM
- GI50 (BT-549 breast): 1.59 µM
- TGI (BT-549 breast): 4.05 µM
- GI50 (SK-OV-3 ovarian): 2.06 µM
- TGI (SK-OV-3 ovarian): 6.07 µM
- GI50 (HCT-116 colon): 2.04 µM
- TGI (HCT-116 colon): 5.62 µM
- GI50 (OVCAR-4 ovarian): 2.49 µM
- TGI (OVCAR-4 ovarian): 15.2 µM
- GI50 (HCC-2998 colon): 3.28 µM
- TGI (HCC-2998 colon): 11.6 µM
- GI50 (SNB-19 CNS): 2.95 µM
- TGI (SNB-19 CNS): 19.1 µM
- GI50 (HT29 colon): 4.79 µM
- TGI (HT29 colon): 26.8 µM
- GI50 (SW-620 colon): 3.05 µM
- TGI (SW-620 colon): 11.9 µM
- GI50 (UACC-257 melanoma): 1.67 µM
- TGI (UACC-257 melanoma): 6.15 µM
- GI50 (DU-145 prostate): 3.01 µM
- TGI (DU-145 prostate): > 100 µM
- GI50 (T-47D breast): 1.86 µM
- TGI (T-47D breast): 6.61 µM
- GI50 (UACC-62 melanoma): 1.29 µM
- TGI (UACC-62 melanoma): 3.72 µM
- GI50 (KM12 colon): 2.57 µM
- TGI (KM12 colon): 6.83 µM
- GI50 (HOP-92 NSCLC): 1.56 µM
- TGI (HOP-92 NSCLC): 5.45 µM
- GI50 (NCI-H226 lung): 2.1 µM
- TGI (NCI-H226 lung): 7 µM
- GI50 (LOX IMVI melanoma): 2.89 µM
- TGI (LOX IMVI melanoma): 8.25 µM
- GI50 (SK-MEL-5 melanoma): 0.832 µM
- TGI (SK-MEL-5 melanoma): 2.21 µM
- GI50 (SF-539 CNS): 2.58 µM
- TGI (SF-539 CNS): 10.6 µM
- GI50 (OVCAR-8 ovarian): 3.1 µM
- TGI (OVCAR-8 ovarian): 13.3 µM
- GI50 (NCI-H522 lung): 1.74 µM
- TGI (NCI-H522 lung): 7.65 µM
- GI50 (MCF7 breast): 2.48 µM
- TGI (MCF7 breast): 13.9 µM
- GI50 (786-0 renal): 2.75 µM
- TGI (786-0 renal): 9.2 µM
- GI50 (A549 NSCLC): 2.95 µM
- TGI (A549 NSCLC): 15.1 µM
- GI50 (SK-MEL-28 melanoma): 2.2 µM
- TGI (SK-MEL-28 melanoma): 9.94 µM
- GI50 (CCRF-CEM leukemia): 3.34 µM
- TGI (CCRF-CEM leukemia): > 100 µM
- GI50 (SF-268 CNS): 2.23 µM
- TGI (SF-268 CNS): 9.68 µM
- GI50 (RPMI-8226 leukemia): 1.67 µM
- TGI (RPMI-8226 leukemia): 9.57 µM
- GI50 (M14 melanoma): 2.3 µM
- TGI (M14 melanoma): 6.88 µM
- GI50 (HOP-62 NSCLC): 2.24 µM
- TGI (HOP-62 NSCLC): 5.38 µM
- GI50 (COLO 205 colon): 5.11 µM
- TGI (COLO 205 colon): 17.6 µM
- GI50 (SK-MEL-2 melanoma): 1.4 µM
- TGI (SK-MEL-2 melanoma): 3.71 µM
- GI50 (SF-295 CNS): 2.42 µM
- TGI (SF-295 CNS): 6.2 µM
- GI50 (PC-3 prostate): 3.08 µM
- TGI (PC-3 prostate): 13.4 µM
- GI50 (OVCAR-3 ovarian): 2.98 µM
- TGI (OVCAR-3 ovarian): 12.9 µM
- GI50 (HS 578T breast): 1.93 µM
- TGI (HS 578T breast): 6.55 µM
- GI50 (NCI-H23 lung): 1.69 µM
- TGI (NCI-H23 lung): 4.8 µM
- GI50 (ACHN renal): 2.42 µM
- TGI (ACHN renal): 10.3 µM
- GI50 (U251 CNS): 3.01 µM
- TGI (U251 CNS): 12.5 µM
- GI50 (UO-31 renal): 2.49 µM
- TGI (UO-31 renal): 12.3 µM
- GI50 (A498 renal): 2.27 µM
- TGI (A498 renal): 6.31 µM
- GI50 (SN12C renal): 2.18 µM
- TGI (SN12C renal): 8.26 µM
- GI50 (MDA-MB-435): 2.17 µM
- TGI (MDA-MB-435): 7.05 µM
- GI50 (MDA-MB-468 breast): 2.1 µM
- TGI (MDA-MB-468 breast): 5.51 µM
- GI50 (MALME-3M melanoma): 1.91 µM
- TGI (MALME-3M melanoma): 5.3 µM
- GI50 (TK-10 renal): 3.57 µM
- TGI (TK-10 renal): 13.5 µM
- GI50 (MOLT-4 leukemia): 1.77 µM
- TGI (MOLT-4 leukemia): 5.47 µM
